17 compounds from patent US8242275B2, “Bicyclic pyrazole compounds as antibacterial agents” (Janssen Pharmaceutica NV, priority 2005, dated 2012) can be followed below.

The target of one test is T1, E. coli topoisomerase IV (Escherichia coli, UniProt P0AFI2+P20083).
T1 construct: purchased John Innes Enterprises Ltd. (John Innes Centre, UK)
The experiment in a line: Topoisomerase IV inhibition assay (relaxation). The class given is biochemical. The conditions noted are these: E. coli topoisomerase IV relaxation, visual inspection of gels; read-out: Topoisomerase IV IC50 (converted). On the procedure: Inhibition of the relaxation activity of E. coli topoisomerase IV was determined using enzyme, buffers and substrates received from John Innes Enterprises Ltd. (John Innes Centre, UK). The reactions were performed according to the manufacturer's directions, with the following modifications.
DNA relaxation reactions were carried out in a total reaction volume of 20 μL, containing 300 ng of supercoiled pBR322, 40 mM HEPES-KOH (pH 7.6), 100 mM potassium glutamate, 10 mM Mg(OAc)2, 10 mM DTT, 4 μg/mL tRNA, 2 mM ATP, and 50 μg/mL BSA. Compounds, diluted in 10% DMSO, were added to the reaction mixture to reach a final concentration of 0.5% DMSO. Enzyme was diluted to 0.45 unit/μL in a solution of 40 mM HEPES-KOH (pH 7.6), 150 mM potassium glutamate, 1 mM DTT, 1 mM EDTA, and 40% glycerol. Diluted enzyme (0.9 unit) was added to each reaction.
The reactions were incubated at 37° C. for 45 min. The reactions were then cooled to 0° C. followed by addition of 3 μL of 40% glycerol, 100 mM Tris-HCl (pH 7.5), 50 mM EDTA, 0.5% SDS and 0.1% bromophenol blue. Samples were separated on 1.0% agarose gels. Gels were stained with Ethidium bromide and photographed with a Stratagene Eagle Eye II.

The next test deals with T2, E. coli DNA gyrase (Escherichia coli, UniProt P0AES4+P0AES6).
T2 construct: purchased John Innes Enterprises Ltd. (John Innes Centre, UK)
T2 sequence (P0AES4 whole entry, one chain of several): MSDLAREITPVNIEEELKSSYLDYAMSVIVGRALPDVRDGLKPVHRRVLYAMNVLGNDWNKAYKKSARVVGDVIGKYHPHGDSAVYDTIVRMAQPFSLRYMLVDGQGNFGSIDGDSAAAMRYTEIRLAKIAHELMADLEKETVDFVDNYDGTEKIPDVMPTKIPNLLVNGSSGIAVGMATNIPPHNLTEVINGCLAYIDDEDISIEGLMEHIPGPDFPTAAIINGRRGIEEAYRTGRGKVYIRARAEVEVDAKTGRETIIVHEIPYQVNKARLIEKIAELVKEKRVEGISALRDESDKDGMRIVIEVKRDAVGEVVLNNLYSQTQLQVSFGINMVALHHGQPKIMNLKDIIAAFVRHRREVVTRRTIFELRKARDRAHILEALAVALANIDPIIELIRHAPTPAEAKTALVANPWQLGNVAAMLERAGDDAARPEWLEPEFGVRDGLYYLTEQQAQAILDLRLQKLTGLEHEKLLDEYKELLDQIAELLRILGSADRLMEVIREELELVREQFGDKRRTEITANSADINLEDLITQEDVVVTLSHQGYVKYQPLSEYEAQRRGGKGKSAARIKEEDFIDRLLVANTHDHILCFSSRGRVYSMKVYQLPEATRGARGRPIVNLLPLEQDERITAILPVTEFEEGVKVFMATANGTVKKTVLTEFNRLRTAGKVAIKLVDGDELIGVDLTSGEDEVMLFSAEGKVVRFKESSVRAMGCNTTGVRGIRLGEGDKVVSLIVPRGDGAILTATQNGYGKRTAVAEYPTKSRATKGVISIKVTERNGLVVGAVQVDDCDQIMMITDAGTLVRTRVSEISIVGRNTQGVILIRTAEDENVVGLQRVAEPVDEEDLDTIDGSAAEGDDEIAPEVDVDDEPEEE
The experiment in a line: DNA gyrase inhibition assay (supercoiling). The class given is biochemical. The conditions noted are these: E. coli DNA gyrase supercoiling, visual inspection of gels; read-out: DNA Gyrase IC50 (converted). Put shortly:
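Relaxed pBR322 (250 ng) was supercoiled by 0.2 unit gyrase in Tris-HCl pH 7.5, KCl, MgCl2, DTT, spermidine, 1 mM ATP, glycerol, albumin, 0.5% DMSO final, 30 min at 37° C. Products were resolved on 1.0% agarose gels with ethidium bromide staining.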

The next test concerns S. aureus ATCC13709. The experiment in a line: In vitro antibacterial activity (MIC assay), broth microdilution. The class given is cell-based. The following applies: Staphylococcus aureus, ATCC13709; read-out: S. aureus ATCC13709 MIC. The procedure, abridged: (§1)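 Broth microdilution per NCCLS M7-A5: 11-point 2-fold compound dilutions from DMSO stocks, inoculum about 5×10^5 CFU/mL, incubation 35° C for 16–24 h. MIC scored visually against no-compound growth controls, in μg/mL.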

Test [1] deals with E. coli KL-16 (GSC strain 4245). Described as above. The class given is cell-based. The following applies: Escherichia coli. The procedure, abridged:
as §1

In a further test the test system is S. pneumoniae ATCC49619. The description is as above. It is filed as cell-based. The conditions noted are these: Streptococcus pneumoniae, ATCC49619; read-out: S. pneumoniae ATCC49619 MIC. Put shortly:
as §1

Converted amounts (≈) assume the structure as drawn.

T1 sequence (P0AFI2 whole entry): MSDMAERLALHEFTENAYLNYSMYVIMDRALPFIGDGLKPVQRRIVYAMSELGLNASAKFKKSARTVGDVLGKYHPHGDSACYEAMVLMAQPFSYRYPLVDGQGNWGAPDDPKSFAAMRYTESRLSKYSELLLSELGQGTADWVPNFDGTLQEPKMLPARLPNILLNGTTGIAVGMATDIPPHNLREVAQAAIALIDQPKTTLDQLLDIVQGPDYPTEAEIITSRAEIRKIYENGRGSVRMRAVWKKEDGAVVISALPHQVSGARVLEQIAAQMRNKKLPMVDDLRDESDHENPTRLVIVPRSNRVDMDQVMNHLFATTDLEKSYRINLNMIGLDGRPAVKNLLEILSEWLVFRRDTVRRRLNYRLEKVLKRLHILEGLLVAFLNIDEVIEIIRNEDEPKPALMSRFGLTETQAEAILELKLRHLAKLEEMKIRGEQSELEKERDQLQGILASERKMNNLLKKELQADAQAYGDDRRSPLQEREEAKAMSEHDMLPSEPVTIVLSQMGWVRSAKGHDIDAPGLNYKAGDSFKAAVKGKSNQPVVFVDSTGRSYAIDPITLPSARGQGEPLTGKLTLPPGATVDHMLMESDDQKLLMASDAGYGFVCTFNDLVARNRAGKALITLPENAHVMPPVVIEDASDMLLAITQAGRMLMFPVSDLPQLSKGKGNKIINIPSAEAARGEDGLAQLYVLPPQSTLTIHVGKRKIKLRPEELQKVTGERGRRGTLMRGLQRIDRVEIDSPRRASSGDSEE
T1 sequence (P20083 whole entry): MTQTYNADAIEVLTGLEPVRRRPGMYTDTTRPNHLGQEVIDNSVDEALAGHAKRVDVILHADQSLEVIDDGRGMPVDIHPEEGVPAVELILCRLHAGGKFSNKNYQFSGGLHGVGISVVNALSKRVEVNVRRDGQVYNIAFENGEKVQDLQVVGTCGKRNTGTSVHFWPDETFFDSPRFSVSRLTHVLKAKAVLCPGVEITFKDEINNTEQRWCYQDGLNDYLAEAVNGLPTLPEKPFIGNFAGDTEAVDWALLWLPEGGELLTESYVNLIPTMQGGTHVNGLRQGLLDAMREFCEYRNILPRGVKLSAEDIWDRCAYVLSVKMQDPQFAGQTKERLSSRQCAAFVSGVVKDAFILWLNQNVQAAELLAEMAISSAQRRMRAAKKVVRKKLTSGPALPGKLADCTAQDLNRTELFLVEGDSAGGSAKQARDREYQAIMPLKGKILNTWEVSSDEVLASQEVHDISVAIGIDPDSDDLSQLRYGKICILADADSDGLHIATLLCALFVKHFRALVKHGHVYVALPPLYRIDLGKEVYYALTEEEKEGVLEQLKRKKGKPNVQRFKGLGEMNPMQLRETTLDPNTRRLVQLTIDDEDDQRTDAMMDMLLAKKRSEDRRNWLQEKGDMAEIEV

The term IC50 denotes the concentration that gives 50% inhibition. Broadly, the MIC is the smallest concentration in the dilution series that meets the test's criterion for growth inhibition. Turning to `O=C1CSc2ccc(C(=O)NC3CCc4nn(-c5cccc6ccccc56)cc4C3)cc2N1` (stereo not shown) [Example 34, 3-Oxo-3,4-dihydro-2H-benzo[1,4]thiazine-6-carboxylic acid (2-naphthalen-1-yl-4,5,6,7-tetrahydro-2H-indazol-5-yl)-amide], the IC50 at E. coli topoisomerase IV is 275 nM; on E. coli DNA gyrase it was 4400 nM. Further, the MIC in the test with S. aureus ATCC13709 is 0.5 µg/mL (≈ 1.1 µM); in test [1] it was > 128 µg/mL; in the test with S. pneumoniae ATCC49619, 8 µg/mL (≈ 17.6 µM).
Consider `COc1ccc2nccc(-n3cc4c(n3)CCC(NCc3ccc5c(c3)NCCS5)C4)c2n1` (stereo not shown) [Example 36, (3,4-Dihydro-2H-benzo[1,4]thiazin-6-ylmethyl)-[2-(6-methoxy-[1,5]naphthyridin-4-yl)-4,5,6,7-tetrahydro-2H-indazol-5-yl]-amine], for which the IC50 on E. coli topoisomerase IV is 65.4 nM; on E. coli DNA gyrase, 1090 nM. Further, the MIC with S. aureus ATCC13709 is < 0.125 µg/mL; in test [1], 8 µg/mL (≈ 17.4 µM); in the test on S. pneumoniae ATCC49619 it was 0.25 µg/mL (≈ 0.545 µM).
Regarding `COc1ccc2nccc(-n3cc4c(n3)CCC(NCc3ccc5c(c3)OCO5)C4)c2n1` (stereo not shown) [Example 37, Benzo[1,3]dioxol-5-ylmethyl-[2-(6-methoxy-[1,5]naphthyridin-4-yl)-4,5,6,7-tetrahydro-2H-indazol-5-yl]-amine], the IC50 at E. coli topoisomerase IV and at E. coli DNA gyrase was 582 nM in each case. Further, the MIC with S. aureus ATCC13709 came out at 0.5 µg/mL (≈ 1.16 µM); in test [1], 32 µg/mL (≈ 74.5 µM); in the test with S. pneumoniae ATCC49619, 2 µg/mL (≈ 4.66 µM).
For the compound `COc1ccc2nccc(-n3cc4c(n3)CCC(NCc3ccc5c(c3)OC(F)(F)O5)C4)c2n1` (stereo not shown) [Example 38, (2,2-Difluoro-benzo[1,3]dioxol-5-ylmethyl)-[2-(6-methoxy-[1,5]naphthyridin-4-yl)-4,5,6,7-tetrahydro-2H-indazol-5-yl]-amine], the IC50 was 537 nM at E. coli topoisomerase IV and 4300 nM on E. coli DNA gyrase. In addition, the MIC with S. aureus ATCC13709 was 0.25 µg/mL (≈ 0.537 µM); in test [1] it was > 128 µg/mL; in the test on S. pneumoniae ATCC49619, 4 µg/mL (≈ 8.59 µM).
In the case of `COc1ccc2nccc(-n3cc4c(n3)CCC(NCc3cc5c(cc3F)SCC(=O)N5)C4)c2n1` (stereo not shown) [Example 40, 7-Fluoro-6-{[2-(6-methoxy-[1,5]naphthyridin-4-yl)-4,5,6,7-tetrahydro-2H-indazol-5-ylamino]-methyl}-4H-benzo[1,4]thiazin-3-one], the IC50 at E. coli topoisomerase IV was 122 nM; on E. coli DNA gyrase, 4080 nM. Also, the MIC was 0.25 µg/mL (≈ 0.51 µM) in the test with S. aureus ATCC13709, 4 µg/mL (≈ 8.15 µM) in test [1] and 4 µg/mL (≈ 8.15 µM) with S. pneumoniae ATCC49619.
As for `COc1ccc2nccc(-n3cc4c(n3)CCC(NCc3ccc5c(c3)OCCO5)C4)c2n1` (stereo not shown) [Example 42, (2,3-Dihydro-benzo[1,4]dioxin-6-ylmethyl)-[2-(6-methoxy-[1,5]naphthyridin-4-yl)-4,5,6,7-tetrahydro-2H-indazol-5-yl]-amine], the IC50 on E. coli topoisomerase IV was 564 nM; on E. coli DNA gyrase, 2250 nM. Besides, the MIC is 0.03 µg/mL (≈ 0.0676 µM) with S. aureus ATCC13709, 32 µg/mL (≈ 72.2 µM) in test [1] and 0.5 µg/mL (≈ 1.13 µM) with S. pneumoniae ATCC49619.
On to `COc1ccc2nccc(-n3cc4c(n3)CCC(NCc3ccc5c(n3)NC(=O)CO5)C4)c2n1` (stereo not shown) [Example 44, 6-{[2-(6-Methoxy-[1,5]naphthyridin-4-yl)-4,5,6,7-tetrahydro-2H-indazol-5-ylamino]-methyl}-4H-pyrido[3,2-b][1,4]oxazin-3-one], for which the IC50 was 35 nM on E. coli topoisomerase IV and < 273 nM on E. coli DNA gyrase. Also, the values for the MIC (with S. aureus ATCC13709; in test [1]; with S. pneumoniae ATCC49619) were 0.5 µg/mL (≈ 1.09 µM), 2 µg/mL (≈ 4.37 µM) and 2 µg/mL (≈ 4.37 µM), respectively.
On to `COc1ccc2nccc(-n3cc4c(n3)CCC(NCc3cc5c(cc3F)SCC(=O)N5)C4)c2c1` (stereo not shown) [Example 53, 7-Fluoro-6-{[2-(6-methoxy-quinolin-4-yl)-4,5,6,7-tetrahydro-2H-indazol-5-ylamino]-methyl}-4H-benzo[1,4]thiazin-3-one], for which the IC50 was 32.7 nM at E. coli topoisomerase IV and 1020 nM on E. coli DNA gyrase. In addition, the MIC in the test with S. aureus ATCC13709 came out at 0.25 µg/mL (≈ 0.511 µM); in test [1], 4 µg/mL (≈ 8.17 µM); in the test on S. pneumoniae ATCC49619, 2 µg/mL (≈ 4.09 µM).
Turning to `COc1ccc2nccc(-n3cc4c(n3)CCC(NCc3ccc5c(n3)NC(=O)CO5)C4)c2c1` (stereo not shown) [Example 54, 6-{[2-(6-Methoxy-quinolin-4-yl)-4,5,6,7-tetrahydro-2H-indazol-5-ylamino]-methyl}-4H-pyrido[3,2-b][1,4]oxazin-3-one], the IC50 on E. coli topoisomerase IV is 35 nM; on E. coli DNA gyrase, 131 nM. For the same compound, the MIC with S. aureus ATCC13709 was determined as 1 µg/mL (≈ 2.19 µM); in test [1], 2 µg/mL (≈ 4.38 µM); in the test with S. pneumoniae ATCC49619, 2 µg/mL (≈ 4.38 µM).
For `COc1ccc2nccc(-n3cc4c(n3)CCC(NCC(=O)Nc3cc(F)cc(F)c3)C4)c2n1` (stereo not shown) [Example 58, N-(3,5-Difluoro-phenyl)-2-[2-(6-methoxy-[1,5]naphthyridin-4-yl)-4,5,6,7-tetrahydro-2H-indazol-5-ylamino]-acetamide], the IC50 at E. coli topoisomerase IV was 34.4 nM; on E. coli DNA gyrase, 2150 nM. The MIC in the test with S. aureus ATCC13709 came out at 0.25 µg/mL (≈ 0.538 µM); in test [1] it was 16 µg/mL (≈ 34.4 µM); in the test with S. pneumoniae ATCC49619 it was 4 µg/mL (≈ 8.61 µM).
The corresponding values for `COc1ccc2nccc(-n3cc4c(n3)CCN(CC(=O)c3ccc5c(c3)NC(=O)CO5)C4)c2c1` [Example 64, 6-{2-[2-(6-Methoxy-quinolin-4-yl)-2,4,6,7-tetrahydro-pyrazolo[4,3-c]pyridin-5-yl]-acetyl}-4H-benzo[1,4]oxazin-3-one] are 532 nM, > 8520 nM, 4 µg/mL (≈ 8.52 µM), 64 µg/mL (≈ 136 µM) and 128 µg/mL (≈ 273 µM).
Consider `COc1ccc2nccc(-n3cc4c(n3)CCC(NC(=O)c3cnc5ccccc5n3)C4)c2n1` (stereo not shown) [Example 70, Quinoxaline-2-carboxylic acid [2-(6-methoxy-[1,5]naphthyridin-4-yl)-4,5,6,7-tetrahydro-2H-indazol-5-yl]-amide], for which the IC50 on E. coli topoisomerase IV is > 2210 nM; on E. coli DNA gyrase, > 70900 nM. Further, the results for the MIC (in the test with S. aureus ATCC13709; in test [1]; with S. pneumoniae ATCC49619) were 2 µg/mL (≈ 4.43 µM), > 128 µg/mL and 32 µg/mL (≈ 70.9 µM), respectively.
For `COc1ccc2nccc(-n3cc4c(n3)CCC(NC(=O)C3(c5ccc(Cl)cc5)CCCC3)C4)c2c1` (stereo not shown) [Example 80, 1-(4-Chloro-phenyl)-cyclopentanecarboxylic acid [2-(6-methoxy-quinolin-4-yl)-4,5,6,7-tetrahydro-2H-indazol-5-yl]-amide], the IC50 at E. coli topoisomerase IV was > 2000 nM; on E. coli DNA gyrase, > 31900 nM. The MIC in the test on S. aureus ATCC13709 is 8 µg/mL (≈ 16 µM); in test [1], > 128 µg/mL; with S. pneumoniae ATCC49619 it was 128 µg/mL (≈ 255 µM).
As to `COc1ccc2nccc(-n3cc4c(n3)CCC(NCC(=O)Nc3ccc5c(c3)NC(=O)CS5)C4)c2n1` (stereo not shown) [Example 83, 2-[2-(6-Methoxy-[1,5]naphthyridin-4-yl)-4,5,6,7-tetrahydro-2H-indazol-5-ylamino]-N-(3-oxo-3,4-dihydro-2H-benzo[1,4]thiazin-6-yl)-acetamide], the IC50 on E. coli topoisomerase IV is 485 nM; at E. coli DNA gyrase, < 485 nM. Moreover, the MIC in the test with S. aureus ATCC13709 was 2 µg/mL (≈ 3.88 µM); in test [1], > 128 µg/mL; in the test on S. pneumoniae ATCC49619 it was 32 µg/mL (≈ 62.1 µM).
`COc1ccc2nccc(-n3cc4c(n3)CCC(NC/C=C/c3ccccc3[N+](=O)[O-])C4)c2n1` (stereo not shown) [Example 89, [2-(6-Methoxy-[1,5]naphthyridin-4-yl)-4,5,6,7-tetrahydro-2H-indazol-5-yl]-[3-(2-nitro-phenyl)-allyl]-amine]: the IC50 on E. coli topoisomerase IV was 32.9 nM; on E. coli DNA gyrase, 274 nM. The results for the MIC (in the test on S. aureus ATCC13709; in test [1]; in the test with S. pneumoniae ATCC49619) were 2 µg/mL (≈ 4.38 µM), 16 µg/mL (≈ 35 µM) and 2 µg/mL (≈ 4.38 µM), respectively.
As to `COc1ccc2nccc(-n3cc4c(n3)CCC(NCc3ccc5c(c3)NCCS5)C4)c2c1` (stereo not shown) [Example 102], the IC50 is 137 nM at E. coli topoisomerase IV and 1090 nM at E. coli DNA gyrase. For the same compound, the values for the MIC (in the test with S. aureus ATCC13709; in test [1]; in the test on S. pneumoniae ATCC49619) were 0.5 µg/mL (≈ 1.09 µM), 8 µg/mL (≈ 17.5 µM) and 0.5 µg/mL (≈ 1.09 µM), respectively.
On to `COc1ccc2nccc(-n3cc4c(n3)CCC(NCc3cc5c(cc3Cl)OCCO5)C4)c2c1` (stereo not shown) [Example 103, (7-Chloro-2,3-dihydro-benzo[1,4]dioxin-6-ylmethyl)-[2-(6-methoxy-quinolin-4-yl)-4,5,6,7-tetrahydro-2H-indazol-5-yl]-amine], for which the IC50 is 524 nM on E. coli topoisomerase IV and 4190 nM on E. coli DNA gyrase. In addition, the values for the MIC (in the test on S. aureus ATCC13709; in test [1]; with S. pneumoniae ATCC49619) were 0.5 µg/mL (≈ 1.05 µM), 32 µg/mL (≈ 67.1 µM) and 4 µg/mL (≈ 8.39 µM), respectively.
